Results from patent US20250262172A1 (ANTECIP BIOVENTURES II LLC, priority 2022, published 2025).

Tests used:
[1] = powder; cited from earlier work
[2] = Concomitant use of the subject combination with strong CYP2D6 inhibitors; format: in vivo, human; conditions: subject combination with one or more strong CYP2D6 inhibitors
Description: In some embodiments, the subject composition may be co-administered with one or more strong Inhibitors of CYP2D6. […] It is, thus, recommended to monitor patients for adverse effects or adverse reactions potentially attributable to dextromethorphan, such as somnolence and dizziness.

[3] = CYP2D6 inhibited by quinidine; vs patients who were not CYP2D6 poor metabolizers; cited from earlier work
[4] = 7 days of twice-daily 30 mg dextromethorphan and 30 mg quinidine; cited from earlier work
[5] = Steady state pharmacokinetic data in 12 poor metabolizers in efficacy clinical trials (Example 2); conditions: 105 mg bupropion hydrochloride and 45 mg dextromethorphan hydrobromide twice a day
[6] = Clinical trials of the bupropion and dextromethorphan combination, poor metabolizers vs other patients
[7] = Pharmacokinetics in 3 CYP2D6 poor metabolizers given bupropion hydrochloride 105 mg and dextromethorphan hydrobromide 45 mg twice a day (Example 1); conditions: 3 poor metabolizers; 105 mg bupropion hydrochloride and 45 mg dextromethorphan hydrobromide twice a day
[8] = Effect of CYP2D6 poor metabolizer status on pharmacokinetics of the 45 mg dextromethorphan hydrobromide / 105 mg bupropion hydrochloride tablet (Example 3, FIG. 1); conditions: CYP2D6 poor metabolizers vs extensive or ultra-extensive metabolizers; after 8 days of twice daily dosing of the tablet

Structure (SMILES)	solubility in water [1]	plasma concentrations of dextromethorphan [2]	AUC0-12 of dextromethorphan higher for CYP2D6 poor metabolizers [3]	Cmax of dextromethorphan higher for poor metabolizers [3]	increase in AUC0-12 of poor metabolizers compared to extensive metabolizers [4] [fold]	increase in Cmax of poor metabolizers compared to extensive metabolizers [4]	plasma concentrations of dextromethorphan vs exposures for non-poor metabolizer [5]	Cmax and AUC of dextromethorphan in poor metabolizers vs patients who are not poor metabolizers [6]	increase in dextromethorphan AUC0-12 compared to extensive metabolizers [7] [fold]	increase in dextromethorphan Cmax compared to extensive metabolizers [7] [fold]	increase in dextromethorphan AUC0-12 (GMR) [8] [fold]	increase in dextromethorphan Cmax (GMR) [8] [fold]
CC(NC(C)(C)C)C(=O)c1cccc(Cl)c1.Cl (racemic) [Bupropion hydrochloride, (±)-1-(3-chlorophenyl)-2-[(1,1-dimethylethyl)amino]-1-propanone hydrochloride]	highly soluble											
COc1ccc2c(c1)[C@]13CCCC[C@@H]1[C@H](C2)N(C)CC3 [dextromethorphan]		increases	about 46%	about 40%	~1.46	about 1.43 fold	generally higher	significantly higher	~3.4	~3	3.40	3.00
Br.COc1ccc2c(c1)[C@]13CCCC[C@@H]1[C@H](C2)N(C)CC3 [Dextromethorphan hydrobromide, morphinan, 3-methoxy-17-methyl-, (9α, 13α, 14α), hydrobromide monohydrate]	sparingly soluble											
